Data set [1] in a line: Solubility in PBS. It counts as physicochemical. The procedure, abridged:
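Steps: ultracentrifuge the peptide PBS solution, inject the supernatant on HPLC, inject a 50 μM peptide DMSO solution as reference, then calculate solubility as area ratio (PBS/DMSO) × 50 uM.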

The nature of data set [2]: CHI Log D procedure. The class given is physicochemical.
Data set [3] addresses T1, full-length beta-Catenin (Uniprot ID P35222) (Homo sapiens, UniProt P35222).
T1 construct: 10 nM full-length beta-Catenin (Uniprot ID P35222)
T1 sequence (P35222 1-781): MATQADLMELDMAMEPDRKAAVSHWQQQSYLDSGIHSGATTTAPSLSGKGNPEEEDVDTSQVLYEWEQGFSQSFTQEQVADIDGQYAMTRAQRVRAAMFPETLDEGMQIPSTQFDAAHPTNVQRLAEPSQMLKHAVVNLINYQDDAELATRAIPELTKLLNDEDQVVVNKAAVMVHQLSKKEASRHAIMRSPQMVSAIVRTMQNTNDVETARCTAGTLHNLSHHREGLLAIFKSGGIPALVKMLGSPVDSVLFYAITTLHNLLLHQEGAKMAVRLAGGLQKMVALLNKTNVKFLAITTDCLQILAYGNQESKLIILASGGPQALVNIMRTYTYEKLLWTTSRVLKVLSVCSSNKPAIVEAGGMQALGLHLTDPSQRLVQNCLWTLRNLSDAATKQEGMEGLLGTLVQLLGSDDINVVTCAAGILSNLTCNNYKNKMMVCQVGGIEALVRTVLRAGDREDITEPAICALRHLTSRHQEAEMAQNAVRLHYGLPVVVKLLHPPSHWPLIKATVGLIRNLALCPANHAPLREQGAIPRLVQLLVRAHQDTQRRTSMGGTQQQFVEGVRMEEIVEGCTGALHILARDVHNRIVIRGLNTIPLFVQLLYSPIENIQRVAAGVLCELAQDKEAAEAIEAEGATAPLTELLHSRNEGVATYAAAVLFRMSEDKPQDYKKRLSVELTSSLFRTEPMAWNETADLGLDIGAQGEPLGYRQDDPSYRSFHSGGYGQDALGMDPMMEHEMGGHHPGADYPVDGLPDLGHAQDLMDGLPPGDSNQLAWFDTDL
Kind of data set: Fluorescence polarization IC50 (beta-catenin / 5FAM-TCF4 10-53 competition). The class given is binding.

Where [4] appears, read: FP EC50 (nM), fluorescence polarization, beta-catenin.

≈ marks a conversion by molar mass, not a printed value. Like-named read-outs stand apart in the source and are kept apart here.

With `CC(=O)N1CCC[C@]12CC=CCCCC1(CCCC=CCCCOC(=O)N3CC[C@@](C(=O)N[C@@H](Cc4ccsc4)C(=O)N[C@@H](Cc4csc5ccccc45)C(=O)N[C@@H](CCC(N)=O)C(N)=O)(C3)NC(=O)[C@H](CC(N)=O)NC(=O)[C@H](Cc3ccccc3)NC(=O)[C@H](C)NC(=O)[C@H](CCCCNC(=O)CN=[N+]=[N-])NC(=O)[C@H](CC(=O)O)NC(=O)[C@H](CC(=O)O)NC1=O)NC(=O)[C@H](CC(C)(C)C)NC(=O)[C@H](CC(=O)O)NC2=O` (stereo partly drawn) [I-879, Ac-PL3-Asp-Npg-B5-Asp-Asp-[AzAc]Lys-Ala-Phe-Asn-PyrS2-3Thi-BztA-Gln-NH2], in data set [1], the concentration in solution (Solubility) was 45 µM (≈ 92.6 µg/mL). The molecule further returned a chromatographic logD in data set [2] (pH 7.4) of 2. The IC50 in data set [3] (setting [4]) was found to be 6 nM.

In data set [1], `CC(=O)N1CCC[C@]12CC=CCCCC1(CCCC=CCCCOC(=O)N3CC[C@@](C(=O)N[C@@H](Cc4ccsc4)C(=O)N[C@@H](Cc4csc5ccccc45)C(=O)N[C@@H](CCC(N)=O)C(N)=O)(C3)NC(=O)[C@H](CC(N)=O)NC(=O)[C@H](Cc3ccccc3)NC(=O)[C@H](C)NC(=O)[C@H](C)NC(=O)[C@H](CC(=O)O)NC(=O)[C@H](CC(=O)O)NC1=O)NC(=O)[C@H](CCCCNC(=O)CN=[N+]=[N-])NC(=O)[C@H](CC(=O)O)NC2=O` (stereo partly drawn) [I-880, Ac-PL3-Asp-[AzAc]Lys-B5-Asp-Asp-Ala-Ala-Phe-Asn-PyrS2-3Thi-BztA-Gln-NH2] registered a Solubility of 42 µM (≈ 84.1 µg/mL). Besides, in data set [2] (pH 7.4), the chromatographic logD was determined as 1.72. The molecule also had an IC50 in data set [3] (setting [4]) of 6 nM.

`CC(=O)N1CCC[C@]12CC=CCCCC1(CCCC=CCCCOC(=O)N3CC[C@@](C(=O)N[C@@H](Cc4ccsc4)C(=O)N[C@@H](Cc4csc5ccccc45)C(=O)N[C@@H](CCC(N)=O)C(N)=O)(C3)NC(=O)[C@H](CC(N)=O)NC(=O)[C@H](Cc3ccccc3)NC(=O)[C@H](CCCCNC(=O)CCc3cc(C(F)(F)F)cc(C(F)(F)F)c3)NC(=O)[C@H](C)NC(=O)[C@H](CC(=O)O)NC(=O)[C@H](CC(=O)O)NC1=O)NC(=O)[C@H](CC(C)(C)C)NC(=O)[C@H](CC(=O)O)NC2=O` (stereo partly drawn) [I-883, Ac-PL3-Asp-Npg-B5-Asp-Asp-Ala-[35CF3PhPr]Lys-Phe-Asn-PyrS2-3Thi-BztA-Gln-NH2] had a Solubility in data set [1] (Solubility (uM)) of 42 µM (≈ 94.2 µg/mL). In data set [2] (pH 7.4, CHI Log D), this molecule showed a chromatographic logD of 2.4. Moreover, in data set [3] (read-out: beta-Catenin FP IC50), the IC50 is 53 nM.

`CC(=O)N1CCC[C@]12CC=CCCCC1(CCCC=CCCCOC(=O)N3CC[C@@](C(=O)N[C@@H](Cc4ccsc4)C(=O)N[C@@H](Cc4csc5ccccc45)C(=O)N[C@@H](CCC(N)=O)C(N)=O)(C3)NC(=O)[C@H](CC(N)=O)NC(=O)[C@H](Cc3ccccc3)NC(=O)[C@H](CCCCNC(=O)C3CCN(C4CCN(C)CC4)CC3)NC(=O)[C@H](C)NC(=O)[C@H](CC(=O)O)NC(=O)[C@H](CC(=O)O)NC1=O)NC(=O)[C@H](CC(C)(C)C)NC(=O)[C@H](CC(=O)O)NC2=O` (stereo partly drawn) [I-888, Ac-PL3-Asp-Npg-B5-Asp-Asp-Ala-[MeBipipAc]Lys-Phe-Asn-PyrS2-3Thi-BztA-Gln-NH2]: the Solubility in data set [1] (Solubility (uM)) was determined as 21 µM (≈ 45.9 µg/mL). Further, in data set [2] (pH 7.4, CHI Log D), the chromatographic logD stood at 1.39. The IC50 in data set [3] (read-out: beta-Catenin FP IC50) worked out at 13 nM.

On to `CC(=O)N1CCC[C@]12CC=CCCCC1(CCCC=CCCCOC(=O)N3CC[C@@](C(=O)N[C@@H](Cc4ccsc4)C(=O)N[C@@H](Cc4csc5ccccc45)C(=O)N[C@@H](CCC(N)=O)C(N)=O)(C3)NC(=O)[C@H](CC(N)=O)NC(=O)[C@H](Cc3ccccc3)NC(=O)[C@H](CCCCNC(=O)c3ccc(CN(C)C)cc3)NC(=O)[C@H](C)NC(=O)[C@H](CC(=O)O)NC(=O)[C@H](CC(=O)O)NC1=O)NC(=O)[C@H](CC(C)(C)C)NC(=O)[C@H](CC(=O)O)NC2=O` (stereo partly drawn) [I-891, Ac-PL3-Asp-Npg-B5-Asp-Asp-Ala-[Me2NCBz]Lys-Phe-Asn-PyrS2-3Thi-BztA-Gln-NH2], for which the concentration in solution in data set [1] (Solubility (uM)) (Solubility) was 42 µM (≈ 89.7 µg/mL). In data set [2] (pH 7.4, CHI Log D), this molecule displayed a chromatographic logD of 1.53. The IC50 in data set [3] (read-out: beta-Catenin FP IC50) was determined as 13 nM.

`CC(=O)N1CCC[C@]12CC=CCCCC1(CCCC=CCCCOC(=O)N3CC[C@@](C(=O)N[C@@H](Cc4ccsc4)C(=O)N[C@@H](Cc4csc5ccccc45)C(=O)N[C@@H](CCC(N)=O)C(N)=O)(C3)NC(=O)[C@H](CC(N)=O)NC(=O)[C@H](Cc3ccccc3)NC(=O)[C@H](CCCCNC(=O)CCC34CC5CC(CC(C5)C3)C4)NC(=O)[C@H](C)NC(=O)[C@H](CC(=O)O)NC(=O)[C@H](CC(=O)O)NC1=O)NC(=O)[C@H](CC(C)(C)C)NC(=O)[C@H](CC(=O)O)NC2=O` (stereo partly drawn) [I-901, Ac-PL3-Asp-Npg-B5-Asp-Asp-Ala-[AdamantPro]Lys-Phe-Asn-PyrS2-3Thi-BztA-Gln-NH2] displayed a Solubility in data set [1] (Solubility (uM)) of 40 µM (≈ 86.6 µg/mL). In data set [2] (pH 7.4, CHI Log D), this molecule came in with a chromatographic logD of 2.49. Besides, the IC50 in data set [3] (read-out: beta-Catenin FP IC50) stood at 38 nM.

In data set [1] (Solubility (uM)), `CC(=O)N1CCC[C@]12CC=CCCCC1(CCCC=CCCCOC(=O)N3CC[C@@](C(=O)N[C@@H](Cc4ccsc4)C(=O)N[C@@H](Cc4csc5ccccc45)C(=O)N[C@@H](CCC(N)=O)C(=O)N[C@@H](CCCCNC(=O)CN4CCOCC4)C(N)=O)(C3)NC(=O)[C@H](CC(N)=O)NC(=O)[C@H](Cc3ccccc3)NC(=O)[C@H](C)NC(=O)[C@H](C)NC(=O)[C@H](CC(=O)O)NC(=O)[C@H](CC(=O)O)NC1=O)NC(=O)[C@H](CC(C)(C)C)NC(=O)[C@H](CC(=O)O)NC2=O` (stereo partly drawn) [I-905, Ac-PL3-Asp-Npg-B5-Asp-Asp-Ala-Ala-Phe-Asn-PyrS2-3Thi-BztA-Gln-[Morph Ac]Lys-NH2] registered a Solubility of 46 µM (≈ 100 µg/mL). In data set [2] (pH 7.4, CHI Log D), the chromatographic logD came to 1.92. In data set [3] (read-out: beta-Catenin FP IC50), the IC50 is 8 nM.

With `COCCOCCOCCOCCC(=O)NCCCC[C@H](NC(=O)[C@H](CCC(N)=O)NC(=O)[C@H](Cc1csc2ccccc12)NC(=O)[C@H](Cc1ccsc1)NC(=O)[C@]12CCN(C1)C(=O)OCCCC=CCCCC1(CCCC=CC[C@]3(CCCN3C(C)=O)C(=O)N[C@@H](CC(=O)O)C(=O)N[C@@H](CC(C)(C)C)C(=O)N1)C(=O)N[C@@H](CC(=O)O)C(=O)N[C@@H](CC(=O)O)C(=O)N[C@@H](C)C(=O)N[C@@H](C)C(=O)N[C@@H](Cc1ccccc1)C(=O)N[C@@H](CC(N)=O)C(=O)N2)C(N)=O` (stereo partly drawn) [I-912, Ac-PL3-Asp-Npg-B5-Asp-Asp-Ala-Ala-Phe-Asn-PyrS2-3Thi-BztA-Gln-[mPEG4]Lys-NH2], the concentration in solution in data set [1] (Solubility (uM)) (Solubility) came to 45 µM (≈ 102 µg/mL). This molecule also came in with a chromatographic logD in data set [2] (pH 7.4, CHI Log D) of 1.83. For the same molecule, the IC50 in data set [3] (read-out: beta-Catenin FP IC50) came to 10 nM.

In turn, `COCCOCCOCCOCCOCCOCCOCCOCCC(=O)NCCCC[C@H](NC(=O)[C@H](CCC(N)=O)NC(=O)[C@H](Cc1csc2ccccc12)NC(=O)[C@H](Cc1ccsc1)NC(=O)[C@]12CCN(C1)C(=O)OCCCC=CCCCC1(CCCC=CC[C@]3(CCCN3C(C)=O)C(=O)N[C@@H](CC(=O)O)C(=O)N[C@@H](CC(C)(C)C)C(=O)N1)C(=O)N[C@@H](CC(=O)O)C(=O)N[C@@H](CC(=O)O)C(=O)N[C@@H](C)C(=O)N[C@@H](C)C(=O)N[C@@H](Cc1ccccc1)C(=O)N[C@@H](CC(N)=O)C(=O)N2)C(N)=O` (stereo partly drawn) [I-914, Ac-PL3-Asp-Npg-B5-Asp-Asp-Ala-Ala-Phe-Asn-PyrS2-3Thi-BztA-Gln-[mPEG8]Lys-NH2] registered a Solubility in data set [1] (Solubility (uM)) of 46 µM (≈ 112 µg/mL). The molecule further displayed a chromatographic logD in data set [2] (pH 7.4, CHI Log D) of 1.82. Moreover, the IC50 in data set [3] (read-out: beta-Catenin FP IC50) amounted to 16 nM.

In data set [1] (Solubility (uM)), `CC(=O)N1CCC[C@]12CC=CCCCC1(CCCC=CCCCOC(=O)N3CC[C@@](C(=O)N[C@@H](Cc4ccsc4)C(=O)N[C@@H](Cc4csc5ccccc45)C(=O)N[C@@H](CCC(N)=O)C(=O)N[C@@H](CCCCNC(=O)c4cccc5ccccc45)C(N)=O)(C3)NC(=O)[C@H](CC(N)=O)NC(=O)[C@H](Cc3ccccc3)NC(=O)[C@H](C)NC(=O)[C@H](C)NC(=O)[C@H](CC(=O)O)NC(=O)[C@H](CC(=O)O)NC1=O)NC(=O)[C@H](CC(C)(C)C)NC(=O)[C@H](CC(=O)O)NC2=O` (stereo partly drawn) [I-916, Ac-PL3-Asp-Npg-B5-Asp-Asp-Ala-Ala-Phe-Asn-PyrS2-3Thi-BztA-Gln-[1Napc]Lys-NH2] returned a Solubility of 45 µM (≈ 99 µg/mL). The same molecule returned a chromatographic logD in data set [2] (pH 7.4, CHI Log D) of 2.33. Further, the IC50 in data set [3] (read-out: beta-Catenin FP IC50) came to 28 nM.

Take `CC(=O)N1CCC[C@]12CC=CCCCC1(CCCC=CCCCOC(=O)N3CC[C@@](C(=O)N[C@@H](Cc4ccsc4)C(=O)N[C@@H](Cc4csc5ccccc45)C(=O)N[C@@H](CO)C(N)=O)(C3)NC(=O)[C@H](CC(N)=O)NC(=O)[C@H](Cc3ccccc3)NC(=O)[C@H](C)NC(=O)[C@H](C)NC(=O)[C@H](CN(CC(=O)O)CC(F)(F)F)NC(=O)[C@H](CC(=O)O)NC1=O)NC(=O)[C@H](CC(C)(C)C)NC(=O)[C@H](CC(=O)O)NC2=O` (stereo partly drawn) [I-940, Ac-PL3-Asp-Npg-B5-Asp-TfeGA-Ala-Ala-Phe-Asn-PyrS2-3Thi-BztA-Ser-NH2]: the “Solubility” value in data set [1] was determined as 45 µM (≈ 89.5 µg/mL). For the same molecule, the “CHI Log D” value in data set [2] (pH 7.4) is 2.055. Further, the IC50 stood at 1740 nM in data set [3] (fluorescence polarization, beta-catenin, read-out: FP EC50) and 1740 nM in data set [3] (read-out: beta-Catenin FP IC50).
